Source: publication PMC3227451, “Structure-based development of novel sirtuin inhibitors” (Aging (Albany NY), 2011)
Like-named read-outs stand apart in the source and are kept apart here.

Assays:
Assay type in all cases: biochemical
Sirt2 = target: T1, Sirt2 (Homo sapiens, UniProt Q8IXJ6); test: Fluor-de-Lys peptide deacetylation assay, Sirt2
T1 sequence (Q8IXJ6 34-356): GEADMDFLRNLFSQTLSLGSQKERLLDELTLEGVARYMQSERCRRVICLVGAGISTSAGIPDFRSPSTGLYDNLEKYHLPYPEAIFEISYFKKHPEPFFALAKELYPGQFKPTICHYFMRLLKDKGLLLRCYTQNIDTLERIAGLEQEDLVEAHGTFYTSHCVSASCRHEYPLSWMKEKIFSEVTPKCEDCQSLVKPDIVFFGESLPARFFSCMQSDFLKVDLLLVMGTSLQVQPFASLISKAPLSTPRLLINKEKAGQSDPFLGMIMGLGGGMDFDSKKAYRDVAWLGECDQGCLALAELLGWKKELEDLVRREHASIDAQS
Method: The Sirt2 construct was expressed in E. coli Rosetta2 cells (Merck) in LB/Ampicillin/Chloramphenicol medium. Cells were grown at 37 °C, and expression induced at an OD600 of 0.6-0.8 for 4 h with 0.5 mM IPTG. Harvested cells were resuspended in buffer A (50 mM Tris/HCl pH 7.8, 200 mM NaCl, 2 mM DTT), disrupted with a Sonifier, and cell debris removed by 40 min centrifugation at 4 °C, 18000 rpm in a HFA22.50 rotor. The supernatant was supplemented with 10 mM imidazole and incubated with Ni-NTA resin for 1 h at 4 °C. […] The protein was concentrated in an amicon unit (Millipore, Billerica, USA) and digested over night at 4 °C with TEV-protease. The protease was removed from cleaved Sirt2 by incubation with Ni-NTA resin for 1 h at 4 °C. The protein was concentrated, 1:5 diluted with 50 mM Tris/HCl, pH 7.8, and applied to a HiTrap Q anion exchange column (GE Healthcare) equilibrated with 50 mM Tris/HCl, pH 7.8, 50 mM NaCl, 2 mM DTT and eluted with a gradient (20 column volumes) to 50 mM Tris/HCl, pH 7.8, 1 M NaCl, 2 mM DTT. Sirt2 was then applied to a Superdex200 gel filtration column (GE Healthcare) equilibrated in 20 mM Tris/HCl, pH 7.8, 150 mM NaCl, 2 mM DTT. The eluted protein was analyzed by SDS-PAGE, re-concentrated, and shock-frozen in liquid nitrogen for storage at -80 °C.
(§1) The commercial Fluor-de-Lys (FdL) assay kits 1 and 2 (Biomol, Plymouth Meeting, USA) were used to test the deacetylase activity of the four Sirtuins. In both kits the substrate derived from p53 is composed of three amino acids, the acetyl lysine and a C-terminally attached fluorophor. For Sirt2 and 3, FdL-2 peptide (QPK(acetyl-K)) was used, and FdL-1 peptide (RHK(acetyl-K)) for Sirt5 and Sirt6. All tests were done with 0.1 mM of the respective FdL peptide and 0.5 mM NAD^+ as substrates.
(§2) NCI compound stocks were prepared by dissolving them in DMSO at a concentration of 5 mM. The initial screens with all 40 compounds contained 5 μl Sirtuin solution (Sirt2/3 0.1 mg/ml stock concentration; Sirt5/6 1 mg/ml), 1 μl of compound stock (resulting in a 100 μM end concentration), 15 μl FdL substrate, and assay buffer (supplied in the assay kit) to a total volume of 50 μl. As control reactions, peptide with either the compound (without Sirtuin) or with Sirtuin and DMSO instead of compound were measured. After starting the reactions by adding the FdL substrate, assays were incubated for 30 min at 37 °C. Subsequently, 50 μl of a 10 mg/ml trypsin stock (“Developer solution”) were added and the reactions were incubated for 45 min at room temperature. Fluorescence values were measured in a fluorometric plate reader with excitation at 360 nm and read out at 485 nm. Values were then corrected with the control reaction (same compound, but without Sirtuin).
(§3) All measurements shown are averages of duplicates (screen) or triplicates (dose-response curves), and representatives of at least two independent replications. Error bars indicate standard deviations.

Sirt3 = target: T2, Sirt3 (Homo sapiens, UniProt Q9NTG7); test: Fluor-de-Lys peptide deacetylation assay, Sirt3
T2 construct: Sirt3 residues 114-399; His-tag with linker comprising a TEV protease cleavage site (N); made in house; host or cells: E. coli
T2 sequence (Q9NTG7 114-399): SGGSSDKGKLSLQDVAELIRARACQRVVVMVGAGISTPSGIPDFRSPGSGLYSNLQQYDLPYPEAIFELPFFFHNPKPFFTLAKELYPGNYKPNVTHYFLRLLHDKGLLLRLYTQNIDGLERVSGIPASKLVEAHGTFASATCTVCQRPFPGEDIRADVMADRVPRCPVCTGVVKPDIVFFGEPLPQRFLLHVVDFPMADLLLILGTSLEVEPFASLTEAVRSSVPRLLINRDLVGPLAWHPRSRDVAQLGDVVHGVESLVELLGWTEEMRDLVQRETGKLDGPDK
Method: (§4) Sirt3 was expressed in E. coli and purified via Ni-NTA and size exclusion chromatography as described elsewhere, and Sirt5 according to the protocol of Schuetz et al.. […] The protein was bound to the HiTrapQ column in buffer A and eluted in a gradient to buffer A supplemented with 400 mM KCl. Fractions were analyzed by SDS-PAGE, and the Sirt1 fractions were pooled and transferred into buffer A using a NAP column (GE Healthcare).
as §1, §2, §3

Sirt5 = target: T3, Sirt5 (Homo sapiens, UniProt Q9NXA8); test: Fluor-de-Lys peptide deacetylation assay, Sirt5
T3 construct: Sirt5 residues 34-302; His-tag with linker comprising a TEV protease cleavage site (N); made in house
T3 sequence (Q9NXA8 34-302): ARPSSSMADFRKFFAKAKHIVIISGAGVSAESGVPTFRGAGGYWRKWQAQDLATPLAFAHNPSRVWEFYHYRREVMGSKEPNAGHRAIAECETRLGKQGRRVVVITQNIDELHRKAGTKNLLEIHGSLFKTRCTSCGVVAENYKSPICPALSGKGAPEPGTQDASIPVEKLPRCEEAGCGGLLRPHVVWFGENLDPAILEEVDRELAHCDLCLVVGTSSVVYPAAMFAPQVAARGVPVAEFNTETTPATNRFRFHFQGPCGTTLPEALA
Method: as §4, §1, §2, §3

Sirt6 = target: T4, Sirt6 (Homo sapiens, UniProt Q8N6T7); test: Fluor-de-Lys peptide deacetylation assay, Sirt6
T4 construct: Sirt6 residues 13-308; His-tag with linker comprising a TEV protease cleavage site (N, cleaved yes); made in house; host or cells: E. coli Rosetta2
T4 sequence (Q8N6T7 13-308): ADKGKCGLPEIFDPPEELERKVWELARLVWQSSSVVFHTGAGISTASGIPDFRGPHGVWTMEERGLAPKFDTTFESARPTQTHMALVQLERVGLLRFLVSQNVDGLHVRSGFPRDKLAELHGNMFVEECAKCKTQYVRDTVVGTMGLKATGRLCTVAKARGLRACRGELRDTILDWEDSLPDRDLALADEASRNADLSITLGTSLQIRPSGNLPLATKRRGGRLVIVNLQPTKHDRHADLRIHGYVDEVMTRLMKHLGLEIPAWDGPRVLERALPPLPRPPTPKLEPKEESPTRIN
Method: as §1, §2, §3

[1] = 100 μM compound, 0.1 mM FdL-2 peptide, 0.5 mM NAD+
[2] = 100 μM compound, 0.1 mM FdL-1 peptide, 0.5 mM NAD+

Row | SMILES | Effect on the activity of Sirt2 (Sirt2) | Effect on the activity of Sirt3 (Sirt3) | Effect on the activity of Sirt5 (Sirt5) | Effect on the activity of Sirt6 (Sirt6) | Effect on the activity of Sirt2 (Sirt2; [1]) | Effect on the activity of Sirt3 (Sirt3; [1]) | Effect on the activity of Sirt5 (Sirt5; [2]) | Effect on the activity of Sirt6 (Sirt6; [2])
1 | C[C@]12CC[C@H]3[C@@H](CCC4=CC(=O)CC[C@@H]43)[C@@H]1CCC2OC1(O)C(=O)c2ccccc2C1=O (stereo partly drawn) [CSC16, 2-hydroxy-2-((3-oxoestr-4-en-17-yl)oxy)-1H-indene-1,3(2H)-dione] | --- (key: inhibition: significant inhibitory effects (>25% loss of activity); ---: no such effect) | --- (key: inhibition: significant inhibitory effects (>25% loss of activity); ---: no such effect) | --- (key: inhibition: significant inhibitory effects (>25% loss of activity); ---: no such effect) | --- (key: inhibition: significant inhibitory effects (>25% loss of activity); ---: no such effect) | – | – | – | –
2 | O=C(Nc1ccc(Nc2ccc3c(c2)C(=O)c2ccccc2C3=O)c2c1C(=O)c1ccccc1C2=O)c1ccccc1 [CSC17, N-(4-((9,10-dioxo-9,10-dihydro-2-anthracenyl)amino)-9,10-dioxo-9,10-dihydro-1-anthracenyl)benzamide, (Indanthrene Corinth RK)] | – | – | – | – | --- (no such effect) | --- (no such effect) | --- (no such effect) | --- (no such effect)
3 | c1ccc(CN2COc3c(ccc4c5c(ccc34)CN(Cc3ccccc3)CO5)C2)cc1 [CSC18] | – | – | – | – | --- (no such effect) | --- (no such effect) | --- (no such effect) | --- (no such effect)
4 | O=C1c2ccccc2C(C2c3ccccc3C(=O)c3cc(Br)ccc32)c2ccc(Br)cc21 (stereo not drawn) [CSC19] | – | – | – | – | --- (no such effect) | --- (no such effect) | --- (no such effect) | --- (no such effect)
5 | O=C1c2ccccc2C(=O)N1c1ccc(Cc2ccc(N3C(=O)c4ccccc4C3=O)cc2)cc1 [CSC20, 2-(4-(4-(1,3-dioxo-1,3-dihydro-2H-isoindol-2-yl)benzyl)phenyl)-1H-isoindole-1,3(2H)-dione] | – | – | – | – | --- (no such effect) | --- (no such effect) | --- (no such effect) | --- (no such effect)
6 | CN1C[C@H](C(=O)N[C@]2(C)O[C@@]3(O)[C@@H]4CCCN4C(=O)[C@H](Cc4ccccc4)N3C2=O)C=C2c3cccc4[nH]cc(c34)C[C@H]21 [CSC21, 5'-benzyl-12'-hydroxy-2'-methyl-3',6',18-trioxoergotaman, (Ergotamine), reference compound] | inhibition (key: inhibition: significant inhibitory effects (>25% loss of activity); ---: no such effect) | --- (key: inhibition: significant inhibitory effects (>25% loss of activity); ---: no such effect) | inhibition (key: inhibition: significant inhibitory effects (>25% loss of activity); ---: no such effect) | inhibition (key: inhibition: significant inhibitory effects (>25% loss of activity); ---: no such effect) | – | – | – | –
7 | N=C(c1ccc2ccccc2c1)c1ccccc1Cc1ccccc1 [CSC22, (2-benzylphenyl)(2-naphthyl)methanimine] | – | – | – | – | inhibition (significant inhibitory effects (>25% loss of activity)) | --- (no such effect) | --- (no such effect) | --- (no such effect)
8 | Cc1cc(C)cc(C(=N)c2ccccc2Cc2cccc3ccccc23)c1 [CSC23, (3,5-dimethylphenyl)(2-(1-naphthylmethyl)phenyl)methanimine] | – | – | – | – | inhibition (significant inhibitory effects (>25% loss of activity)) | --- (no such effect) | --- (no such effect) | --- (no such effect)
9 | Cc1ccc(C(=N)c2ccccc2Cc2cccc3ccccc23)c2ccccc12 [CSC24, (4-methyl-1-naphthyl)(2-(1-naphthylmethyl)phenyl)methanimine] | – | – | – | – | inhibition (significant inhibitory effects (>25% loss of activity)) | --- (no such effect) | --- (no such effect) | --- (no such effect)
10 | O=C1c2cccc([N+](=O)[O-])c2C(=O)N1c1ncn[nH]1 [CSC25, 4-(hydroxy(oxido)amino)-2-(1H-1,2,4-triazol-5-yl)-1H-isoindole-1,3(2H)-dione] | – | – | – | – | --- (no such effect) | --- (no such effect) | --- (no such effect) | --- (no such effect)
11 | Cc1ccc(C2(C)CCC(=NN=C3CCC(C)(c4ccc(C)c(C)c4)c4cc(C)c(C)cc43)c3cc(C)c(C)cc32)cc1C (stereo not drawn) [CSC26, 4-(3,4-dimethylphenyl)-4,6,7-trimethyl-3,4-dihydro-1(2H)-naphthalenone (4-(3,4-dimethylphenyl)-4,6,7-trimethyl-3,4-dihydro-1(2H)-naphthalenylidene)hydrazone] | – | – | – | – | --- (no such effect) | --- (no such effect) | --- (no such effect) | --- (no such effect)
12 | O=C1c2ccccc2C(=O)c2c1ccc(N1C(=O)c3ccccc3C1=O)c2-c1c(N2C(=O)c3ccccc3C2=O)ccc2c1C(=O)c1ccccc1C2=O [CSC27] | – | – | – | – | inhibition (significant inhibitory effects (>25% loss of activity)) | --- (no such effect) | --- (no such effect) | inhibition (significant inhibitory effects (>25% loss of activity))
